Results on ten compounds are retold here after PubChem BioAssay AID623940 (Vanderbilt Specialized Chemistry Center, 2012).

Active and inactive are the calls of the source.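 The calls were made as follows: active = a response that changes with dose, reported with a potency and a percent of the peak acetylcholine response; inactive = the rest.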

The target of one test is Muscarinic acetylcholine receptor M1 (Rattus norvegicus) (UniProt P08482). Briefly: off-target potentiation of rat M1 ACh response – CHO cells, Fluo-4 calcium, ACh EC20, selectivity assay for M4 PAM optimization project, SAR follow-up (AID 623940). To be noted: CHO rat M1, Fluo-4 calcium.
Chain of Muscarinic acetylcholine receptor M1 (Rattus norvegicus) (P08482 whole entry, looked up): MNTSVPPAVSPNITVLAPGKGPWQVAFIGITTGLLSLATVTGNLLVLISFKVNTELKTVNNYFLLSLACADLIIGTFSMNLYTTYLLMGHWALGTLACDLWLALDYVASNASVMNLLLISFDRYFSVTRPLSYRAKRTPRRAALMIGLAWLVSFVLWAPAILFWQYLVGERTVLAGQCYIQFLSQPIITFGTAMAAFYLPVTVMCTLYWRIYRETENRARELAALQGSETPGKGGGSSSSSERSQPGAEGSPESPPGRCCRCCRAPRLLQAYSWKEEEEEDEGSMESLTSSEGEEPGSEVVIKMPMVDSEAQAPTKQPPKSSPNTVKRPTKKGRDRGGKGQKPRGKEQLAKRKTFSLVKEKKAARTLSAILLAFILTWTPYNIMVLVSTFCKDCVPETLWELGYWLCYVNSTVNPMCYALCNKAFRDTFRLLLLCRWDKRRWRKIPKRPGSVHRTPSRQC
Regarding `Cc1nc2sc(C(=O)NCc3cccnc3)c(N)c2c(C)c1Cl`, the outcome was inactive.

Regarding `Cc1nc2sc(C(=O)NCc3ccccc3)c(N)c2c(C)c1Cl`, the outcome was inactive.

Take `Cc1nc2sc(C(=O)NCc3ccc4c(c3)OCO4)c(N)c2c(C)c1Cl`: the result was inactive.

In the case of `Cc1nc2sc(C(=O)NC3CC3)c(N)c2c(C)c1Cl`, the EC50 is 943 nM.

For the compound `Cc1nc2sc(C(=O)NCc3ccncc3)c(N)c2c(C)c1Cl`, the result was inactive.

The test is the same for the next values; noted with them: CHO rat M1, Fluo-4 calcium, at 30 µM (top of the series).
As to `Cc1nc2sc(C(=O)NCc3ccncn3)c(N)c2c(C)c1Cl`, the “percent of ACh max response” value is “inactive”.

Take `Cc1nc2sc(C(=O)NCc3cccc(F)c3F)c(N)c2c(C)c1Cl`: the “percent of ACh max response” value was “inactive”.

On to `Cc1nc2sc(C(=O)NCCc3ccncc3)c(N)c2c(C)c1Cl`, for which the “percent of ACh max response” value was “inactive”.

Turning to `COc1ccc(C)c2sc(NC(=O)c3ccncc3)nc12`, the “percent of ACh max response” value is “inactive”.

Regarding `Cc1nc2sc(C(=O)NCc3nccs3)c(N)c2c(C)c1Cl`, the “percent of ACh max response” value is “inactive”.

Usually EC50 stands for the concentration needed to bring the measured effect to its halfway point.
